Data taken from patent US20260365628A1, “SUBSTITUTED 3,4-DIHYDROQUINOLINONE INHIBITORS OF TSHR” (Septerna, Inc., priority 2022, published 2026).

Biological target: T1, hTSHR (Homo sapiens, UniProt P16473)
T1 construct: expressed in transfected cells
Assay: hTSHR TR-FRET cAMP Assay (inhibition of M22-stimulated cAMP production)
Assay type: cell-based
Conditions: not given
Method: Assays were performed using Expi293F Inducible cells (Invitrogen) stably expressing hTSHR via a pcZeo TetO DNA plasmid. Cell lines were maintained in suspension in Expi293 Expression Medium (ThermoFisher Scientific) supplemented with 10 µg/mL Blasticidin and 10 μg/mL Zeocin and incubated at 37° C., 8% CO2, with shaking. hTSHR cells were incubated overnight at 32° C., 5% C02, with shaking, but […] Doxycycline. Assay-ready aliquots were prepared by harvesting each cell type separately 24-hours post-induction. Cells were pelleted at 4° C., resuspended in Expi293 Expression media+10% DMSO, aliquoted, and kept frozen at −80° C. until ready for use.
For the assay, concentration-response curves of test and reference compounds were added to 384-well plates using an Echo 650 liquid handler (Beckman Coulter) and backfilled with DMSO to a final concentration of 0.5%. cAMP was measured using the cisbio cAMP Gs dynamic HTRF kit (PerkinElmer) according to manufacturer instructions. Aliquots of frozen hTSHR cells were quickly thawed and washed with phosphate-buffered saline (Sigma-Aldrich) to remove media and DMSO. The cells were resuspended in kit-supplied Stimulation Buffer at 0.8×10^6 cells/mL. 7.5 μL of the hTSHR cell dilution were added to each well of the assay plate and incubated with the compounds for 15 minutes in a 37 C, 0% CO2 incubator. 2.5 μL of Vehicle control or an EC80 concentration of recombinant human anti-TSHR antibody (M22, Creative Biolabs) was added to stimulate cAMP production. Cells were incubated with for 30 minutes at 37° C., 0% CO2. Following this incubation, the cells were lysed and accumulated cAMP was detected through the addition of kit-supplied lysis buffer containing d2-reagent and Eu-cryptate antibody. The HTRF signal was quantified using a BMG Clariostar plate reader optimized for HTRF assays. The HTRF ratio was determined by dividing the signal output at […] by that at 620 nm. Data were normalized to the signal produced by the EC80 concentration of either M22 or FSH (0% inhibition) and vehicle (no agonist, 100% inhibition).

T1 sequence (P16473 21-764): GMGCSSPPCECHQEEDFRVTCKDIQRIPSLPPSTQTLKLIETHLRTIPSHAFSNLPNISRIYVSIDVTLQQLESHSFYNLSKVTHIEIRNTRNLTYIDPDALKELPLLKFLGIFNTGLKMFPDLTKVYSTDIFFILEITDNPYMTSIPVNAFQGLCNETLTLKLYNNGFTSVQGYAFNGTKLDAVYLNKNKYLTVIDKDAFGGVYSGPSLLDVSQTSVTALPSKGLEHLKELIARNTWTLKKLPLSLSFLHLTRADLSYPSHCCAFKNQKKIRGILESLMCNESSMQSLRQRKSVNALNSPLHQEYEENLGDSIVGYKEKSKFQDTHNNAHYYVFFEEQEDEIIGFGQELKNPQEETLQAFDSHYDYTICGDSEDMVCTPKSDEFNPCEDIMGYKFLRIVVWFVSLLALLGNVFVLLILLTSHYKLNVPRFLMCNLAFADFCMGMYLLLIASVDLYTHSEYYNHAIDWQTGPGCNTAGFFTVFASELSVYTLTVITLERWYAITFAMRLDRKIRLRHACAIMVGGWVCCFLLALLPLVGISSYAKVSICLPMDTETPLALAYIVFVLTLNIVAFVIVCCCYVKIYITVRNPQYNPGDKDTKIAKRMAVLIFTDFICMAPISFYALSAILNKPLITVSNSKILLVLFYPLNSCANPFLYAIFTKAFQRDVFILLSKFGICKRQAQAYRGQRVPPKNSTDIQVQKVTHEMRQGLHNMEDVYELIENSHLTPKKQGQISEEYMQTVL

SMILES	IC50 [nM]
CC(C)(C)NC(=O)Oc1ccc2c(c1)CCC(=O)N2Cc1ccccc1 [Example 63]	> 1000

Same assay, conditions: Expi293F Inducible cells stably expressing hTSHR; cAMP HTRF; stimulated with EC80 of anti-TSHR antibody M22; 15 min compound preincubation, 30 min at 37° C.; read-out: Activity (IC50 bins)

SMILES	IC50 [nM]
C[C@@H](c1cccc(C(F)(F)F)c1)N1C(=O)COc2cc(NC(=O)NC(C)(C)C)ccc21 [Example 62, (S)-1-(tert-butyl)-3-(3-oxo-4-(1-(3-(trifluoromethyl)phenyl)ethyl)-3,4-dihydro-2H-benzo[b][1,4]oxazin-7-yl)urea]	< 100
CC(C)(C)NC(=O)Nc1cc2c(cc1F)N(Cc1ccccc1)C(=O)CC2 [Example 65, 1-(1-benzyl-7-fluoro-2-oxo-1,2,3,4-tetrahydroquinolin-6-yl)-3-(tert-butyl)urea]	100 to 1000
CC(C)(C)NC(=O)Nc1cc2c(cc1Cl)N(Cc1ccccc1)C(=O)CC2 [Example 66, 1-(1-benzyl-7-chloro-2-oxo-3,4-dihydroquinolin-6-yl)-3-tert-butylurea]	100 to 1000
CC(C)(C)NC(=O)Nc1ccc2c(c1)ncc(=O)n2Cc1ccccc1 [Example 68, 1-(1-benzyl-2-oxo-1,2-dihydroquinoxalin-6-yl)-3-(tert-butyl)urea]	< 100
CC(C)(C)NC(=O)Nc1cc(F)c2c(c1)CCC(=O)N2Cc1ccccc1 [Example 69, 1-(1-benzyl-8-fluoro-2-oxo-1,2,3,4-tetrahydroquinolin-6-yl)-3-(tert-butyl)urea]	100 to 1000
CN1Cc2cc(NC(=O)NC(C)(C)C)ccc2N(Cc2cccc(C(F)(F)F)c2)C1=O [Example 70, 1-(tert-butyl)-3-(3-methyl-2-oxo-1-(3-(trifluoromethyl)benzyl)-1,2,3,4-tetrahydroquinazolin-6-yl)urea]	< 100
CC(C)(C)NC(=O)Nc1ccc2c(c1)OCC(=O)N2Cc1cccc(C(F)F)c1 [Example 71, 1-(tert-butyl)-3-(4-(3-(difluoromethyl)benzyl)-3-oxo-3,4-dihydro-2H-benzo[b][1,4]oxazin-7-yl)urea]	100 to 1000
CC(C)(C)NC(=O)Nc1ccc2c(c1)OCC(=O)N2Cc1cccc(CO)c1 [Example 72, 1-(tert-butyl)-3-(4-(3-(hydroxy-methyl)ben-zyl)-3-oxo-3,4-dihydro-2H-benzo[b][1,4]oxa-zin-7-yl)urea]	> 1000
CC(C)(C)NC(=O)Nc1ccc2c(c1)OCC(=O)N2Cc1cccc(C2CC2)c1 [Example 73, 1-(tert-butyl)-3-(4-(3-cyclopropylbenzyl)-3-oxo-3,4-dihydro-2H-benzo[b][1,4]oxa-zin-7-yl)urea]	100 to 1000
CC(C)Oc1cccc(CN2C(=O)COc3cc(NC(=O)NC(C)(C)C)ccc32)c1 [Example 75, 1-(tert-butyl)-3-(4-(3-isopropoxybenzyl)-3-oxo-3,4-dihydro-2H-benzo[b][1,4]oxa-zin-7-yl)urea]	100 to 1000
CC(C)(C)NC(=O)Nc1ccc2c(c1)OCC(=O)N2Cc1cccc([C@@H](O)C(F)(F)F)c1 [Example 78, (R)-1-(tert-butyl)-3-(3-oxo-4-(3-(2,2,2-trifluoro-1-hydroxyethyl)ben-zyl)-3,4-dihydro-2H-benzo[b][1,4]oxa-zin-7-yl)urea]	100 to 1000
C[C@H]1Oc2cc(NC(=O)NC(C)(C)C)ccc2N(Cc2cccc(C(F)(F)F)c2)C1=O [Example 81]	< 100
Cc1ccc(C#N)c(CN2C(=O)[C@H](C)Oc3cc(NC(=O)NC(C)(C)C)ccc32)c1 [Example 88, (S)-1-(tert-butyl)-3-(4-(2-cyano-5-methylbenzyl)-2-methyl-3-oxo-3,4-dihydro-2H-benzo[b][1,4]oxazin-7-yl)urea]	> 1000
CC(C)(C)NC(=O)Nc1ccc2c(c1)ncc(=O)n2Cc1cccc(Cl)c1 [Example 89, 1-(tert-butyl)-3-(1-(3-chlorobenzyl)-2-oxo-1,2-dihydroquinoxalin-6-yl)urea]	100 to 1000
CC(C)(C)NC(=O)Nc1ccc2c(c1)ncc(=O)n2Cc1cccc(C(F)(F)F)c1 [Example 90, 1-(tert-butyl)-3-(2-oxo-1-(3-(trifluoro-methyl)benzyl)-1,2-di-hydro-quinoxalin-6-yl)urea]	100 to 1000
CC(C)(C)NC(=O)Nc1ccc2c(c1)ncc(=O)n2Cc1cccc(OC(F)(F)F)c1 [Example 91, 1-(tert-butyl)-3-(2-oxo-1-(3-(trifluoro-methoxy)benzyl)-1,2-di-hydro-quinoxalin-6-yl)urea]	100 to 1000
CC(C)(C)NC(=O)Nc1ccc2c(c1)ncc(=O)n2Cc1cccc(CCC(F)(F)F)c1 [Example 92, 1-(tert-butyl)-3-(2-oxo-1-(3-(3,3,3-trifluoro-propyl)benzyl)-1,2-dihydro-quinoxalin-6-yl)urea]	100 to 1000
CC(C)(C)NC(=O)Nc1ccc2c(c1)ncc(=O)n2Cc1cccc(CCCC(F)(F)F)c1 [Example 93, 1-(tert-butyl)-3-(2-oxo-1-(3-(4,4,4-trifluoro-butyl)benzyl)-1,2-dihydro-quinoxalin-6-yl)urea]	< 100

Other lines, results leading:

IC50 [nM]	SMILES
> 1000	CC(C)(C)NC(=O)Nc1ccc2c(c1)CCC(=O)N2CC1CCCCC1 [Example 64, 1-(tert-butyl)-3-(1-(cyclohexylmethyl)-2-oxo-1,2,3,4-tetrahydroquinolin-6-yl)urea]
100 to 1000	CC(C)(C)NC(=O)Nc1ccc2c(n1)CCC(=O)N2Cc1ccccc1 [Example 67, 1-(5-benzyl-6-oxo-5,6,7,8-tetrahydro-1,5-naphthyridin-2-yl)-3-(tert-butyl)urea]
100 to 1000	CC(C)(C)NC(=O)Nc1ccc2c(c1)OCC(=O)N2Cc1cccc(OC(F)(F)F)c1 [Example 74, 1-(tert-butyl)-3-(3-oxo-4-(3-(tri-fluoromethoxy)ben-zyl)-3,4-dihydro-2H-benzo[b][1,4]oxa-zin-7-yl)urea]
> 1000	CC(C)(C)NC(=O)Nc1ccc2c(c1)OCC(=O)N2Cc1cccc2cn[nH]c12 [Example 76, 1-(4-((1H-indazol-7-y1)methyl)-3-oxo-3,4-dihydro-2H-benzo[b][1,4]oxa-zin-7-yl)-3-(tert-butyl)urea]
100 to 1000	CC(C)(C)NC(=O)Nc1ccc2c(c1)OCC(=O)N2Cc1cccc(C(O)C(F)(F)F)c1 (stereo not drawn) [Example 77, 1-(tert-butyl)-3-(3-oxo-4-(3-(2,2,2-trifluoro-1-hy-droxyethyl)benzyl)-3,4-dihydro-2H-benzo[b][1,4]oxa-zin-7-yl)urea]
100 to 1000	CC(C)(C)NC(=O)Nc1ccc2c(c1)OCC(=O)N2Cc1cccc([C@H](O)C(F)(F)F)c1 [Example 79, (S)-1-(tert-butyl)-3-(3-oxo-4-(3-(2,2,2-trifluoro-1-hy-droxyethyl)benzyl)-3,4-dihydro-2H-benzo[b][1,4]oxa-zin-7-yl)urea]
100 to 1000	CC(C)(C)NC(=O)Nc1ccc2c(c1)OCC(=O)N2Cc1cccc(C(O)CC(F)(F)F)c1 (stereo not drawn) [Example 80, 1-(tert-butyl)-3-(3-oxo-4-(3-(3,3,3-trifluoro-1-hydroxypropyl)ben-zyl)-3,4-dihydro-2H-benzo[b][1,4]oxa-zin-7-yl)urea]
100 to 1000	C[C@@H]1Oc2cc(NC(=O)NC(C)(C)C)ccc2N(Cc2cccc(C(F)(F)F)c2)C1=O [Example 82]
> 1000	C[C@H]1Oc2cc(NC(=O)NC(C)(C)C)ccc2N(Cc2cc(C(F)(F)F)ccc2C#N)C1=O [Example 83, (R)-1-(tert-butyl)-3-(4-(2-cyano-5-(trifluoromethyl)benzyl)-2-methyl-3-oxo-3,4-dihydro-2H-benzo[b][1,4]oxazin-7-yl)urea]
100 to 1000	C[C@@H]1Oc2cc(NC(=O)NC(C)(C)C)ccc2N(Cc2cc(C(F)(F)F)ccc2C#N)C1=O [Example 84, (S)-1-(tert-butyl)-3-(4-(2-cyano-5-(trifluoromethyl)benzyl)-2-methyl-3-oxo-3,4-dihydro-2H-benzo[b][1,4]oxazin-7-yl)urea]
100 to 1000	C[C@H]1Oc2cc(NC(=O)NC(C)(C)C)ccc2N(Cc2cc(Cl)ccc2C#N)C1=O [Example 85, (R)-1-(tert-butyl)-3-(4-(5-chloro-2-cyanobenzyl)-2-methyl-3-oxo-3,4-dihydro-2H-benzo[b][1,4]oxazin-7-yl)urea]
> 1000	C[C@@H]1Oc2cc(NC(=O)NC(C)(C)C)ccc2N(Cc2cc(Cl)ccc2C#N)C1=O [Example 86, (S)-1-(tert-butyl)-3-(4-(5-chloro-2-cyanobenzyl)-2-methyl-3-oxo-3,4-dihydro-2H-benzo[b][1,4]oxazin-7-yl)urea]
> 1000	Cc1ccc(C#N)c(CN2C(=O)[C@@H](C)Oc3cc(NC(=O)NC(C)(C)C)ccc32)c1 [Example 87, (R)-1-(tert-butyl)-3-(4-(2-cyano-5-methylbenzyl)-2-methyl-3-oxo-3,4-dihydro-2H-benzo[b][1,4]oxazin-7-yl)urea]
100 to 1000	CC(C)(C)NC(=O)Nc1ccc2c(c1)ncc(=O)n2Cc1cccc(CC(F)(F)F)c1 [Example 94, 1-(tert-butyl)-3-(2-oxo-1-(3-(2,2,2-trifluoro-ethyl)benzyl)-1,2-dihydro-quinoxalin-6-yl)urea]
